Data reported in patent publication US20260263421A1, “Method of Mitigating Radiation Injury with Geranylgeranyl Transferase Inhibitors” (BioVentures, LLC, priority 2022, published 2026).

How the values were obtained:
[1] = system: small intestine of male C57BL/6J mice after 12 Gy PBI; assay: 12 Gy γ-ray partial body irradiation (PBI) mouse model, intestinal injury and body weight at 2 weeks; assay type: in vivo
From the text: In addition, GGTi-298 (commercially available, MedChemExpress, Monmouth Junction, NJ) mitigated adverse effects of 12 Gy γ-ray PBI on villus height, crypt depth and crypt width. […] This bacterium is inversely associated with obesity, diabetes, inflammation and metabolic disorders. Lastly, PBI-induced increases in the percentage of Turicibacter and Clostridium species were mitigated by GGTi-2133. Several Clostridium species are known to be pathogenic, while an increase in Turicibacter depletes CD8+ lymphocytes in the gut, which can adversely affect gut immune function.
Data are represented as mean+/−standard deviation (SD; n=5 to 8 mice per group). “PBI” refers to partial body irradiation, and “Sham” refers to no PBI. The notations “a & b” refer to statistically significant difference from sham-irradiation and PBI, respectively. […] Both sham-irradiated mice and the PBI group received intraperitoneal administration of vehicle. […]
FIGS. 5A-5D are photomicrographs showing olfactomedin 4 (OLFM4) staining in the crypts of sham irradiated vehicle treated mice (FIGS. 5A), 12 Gy PBI plus vehicle treated mice (FIGS. […] 5D). Colors represent staining intensities: yellow (dark), red (medium), and green (weak). FIG. 5E is a bar graph showing the average staining intensity for dark, medium, and weak immunoreactivity obtained by analyzing 10 randomly selected crypts under 100× magnification from each mouse. Data are presented as mean+/−SD (n=5 to 8). The notation “a & b” refer to statistically significant difference from sham and PBI, respectively.
FIG. 6A is an H&E stained small intestinal section (20× magnification) to indicate how the villus height, crypt depth, and crypt width were measured with computerized analysis. […] Data are represented as mean+/−SD. The notation “a & b” refer to statistically significant difference from sham and PBI, respectively. Both sham-irradiated mice and the PBI group received intraperitoneal administration of vehicle.
Villus height and crypt depth were measured in 30 randomly selected villi and crypts (20× magnification), MSA was measured in 5 randomly selected areas (20× magnification), and enterocyte length and the length of their nucleus were measured in 3 enterocytes/villus in 10 villi (100× magnification) for each mouse.
Neutrophils and lymphocytes were scored under 40× magnification. Macrophages were scored in 30 villi under 100× magnification.
GGTi-2133 treatment increases the number of intestinal proliferating cells after PBI: Two proliferation markers (PCNA and Ki-67) were used. […] Cells were scored under 40× magnification.
Cells were scored under 20× magnification.
GGTi-2133 increases the expression of intestinal stem cell marker olfactomedin 4 (OLFM4) after PBI: The inventors assayed OLFM4 protein with immunohistochemistry and computerized image analysis to classify the immunoreactive regions as “dark,” “medium,” or “weak” based on staining intensity.
GGTi-298 treatment attenuates intestinal structural damage following PBI: In order to ensure another formulation of GGTi provides similar mitigation against intestinal damage following PBI, the inventors used GGTi-298 (MedChemExpress). […] Villus height, and crypt depth and width were measured in 30 randomly selected villi and crypts (20× magnification) for each mouse.

[2] = system: small intestine crypts of male C57BL/6J mice after 12 Gy PBI; assay: Surviving crypt assay (PCNA) in small intestine on day 3.5 after 12 Gy PBI; assay type: in vivo, mouse; conditions: 2.5 mg/kg i.p. at 24 h and 72 h, jejunum day 3.5, vs PBI plus vehicle
Protocol: FIGS. 8A-8C are photomicrographs of small intestine sections stained for Proliferating Cell Nuclear Antigen (PCNA) in sham-irradiated vehicle treated mice (FIGS. 8A), 12 Gy PBI plus vehicle treated mice (FIG. 8B), and mice treated with 12 Gy PBI and 2.5 mg/kg GGTi-2133 on (FIG. 8C). Cross-sections from three different mice are shown in each of FIG. 8A, FIG. 8B, and FIG. 8C. Each mouse received two intraperitoneal injections of either vehicle or 2.5 mg/kg GGTi: the first injection was administered 24 hours after PBI and the second one was administered 72 hours after irradiation. Intestinal tissue was harvested 84 hours after irradiation. FIG. 8D is a bar graph showing the average number of surviving crypts from two intestinal cross sections that were used for data analysis. Crypts were scored under 20× magnification. Data are represented as mean+/−SD (n=8 animals per group). The notation “a & b” refer to statistically significant difference from sham and PBI, respectively.
GGTi-2133 treatment enhances surviving crypt number on day 3.5 after PBI: Male C57BL/6J mice were exposed to 12 Gy PBI and administered GGTi-2133 (2.5 mg/kg) at 24 hours and 72 hours after irradiation. A specimen of the jejunum was collected on day 3.5 after irradiation. The presence of more than five PCNA positive cells grouped together in a crypt was recorded as a surviving crypt. […]

[3] = system: PSN-1 human pancreatic cancer cell line; assay: MTT assay of cell proliferation and metabolic rate; assay type: cell-based; conditions: 3 concentrations, once a day for 4 days, time-dependent and dose-dependent
Protocol: (§1) Human pancreatic cancer cell lines (PANC-1, BxPC-3, PSN-1) and a human prostate cancer cell line (LNCaP) were cultured in vitro at 37° C. and 5% CO2 and incubated with GGTi-2133 at 3 different concentrations. Cell proliferation and metabolic rate were measured with an MTT assay once a day for a total of 4 days. GGTi-2133 reduced the cell proliferation rate in all 4 cell lines in a dose-dependent manner. […] Finally, GGTi-2133 reduced the metabolic activity in LNCaP cells exposed to ionizing radiation.
(§2) FIG. 10F is a bar graph showing cell proliferation and metabolic rate in the LNCaP cell line were reduced to a greater extent after combined treatment with 2 Gy radiation plus GGTi-2133 treatment, in comparison to singular treatment with either 2 Gy radiation or GGTi-2133. Data are represented as mean+/−SD (n=4).

[4] = system: PANC-1 human pancreatic epithelioid carcinoma cell line; assay: MTT assay of cell proliferation and metabolic rate; assay type: cell-based; conditions: 3 concentrations, once a day for 4 days, time-dependent and dose-dependent
Protocol: as §1, §2

[5] = system: BxPC-3 human pancreatic adenocarcinoma cell line; assay: MTT assay of cell proliferation and metabolic rate; assay type: cell-based; conditions: 3 concentrations, once a day for 4 days, time-dependent and dose-dependent
Protocol: as §1, §2

[6] = system: cecal content microbiome of male C57BL/6J mice; assay: Microbiome analysis of cecal content on day 3.5 after 12 Gy PBI; assay type: in vivo, mouse; conditions: 2.5 mg/kg at 24 and 72 h
Protocol: FIGS. 9A-9C are pie charts showing the distribution of different bacterial strains in the cecal content of sham-irradiated vehicle treated mice (FIGS. 9A), 12 Gy PBI plus vehicle treated mice (FIG. 9B), and mice treated with […] and 2.5 mg/kg GGTi-2133 in two administrations (FIG. 9C).
GGTi-2133 alters the percent of 3 bacterial species in the cecal content of mice on day 3.5 after PBI: Male C57BL/6J mice were exposed to 12 Gy PBI and administered GGTi-2133 (2.5 mg/kg) at 24 hours and 72 hours after irradiation. A sample of cecal content was aseptically collected 3.5 days after PBI. […] There were 8 mice in each group. […] GGTi-2133 increased the percentage of Akkermansia muciniphila in irradiated mice. The percentage of Turicibacter and Clostridium species were increased in PBI plus vehicle treated mice as compared to sham-irradiated vehicle-treated mice. The percentage of Turicibacter and Clostridium species were reduced in PBI plus GGTi-2133 treated mice compared to PBI plus vehicle treated mice.

[7] = system: PANC-1 cell line; assay: Clonogenic assay (colony forming ability); assay type: cell-based, human; conditions: dose-dependent
[8] = system: PSN-1 cell line; assay: Clonogenic assay (colony forming ability); assay type: cell-based, human; conditions: dose-dependent
[9] = system: LNCaP androgen-sensitive human prostate adenocarcinoma cell line; assay: MTT assay of cell proliferation and metabolic rate, with or without 2 Gy radiation; assay type: cell-based
Protocol: as §1, §2

[10] = Safe dose in humans (scientific literature); assay type: in vivo, human; conditions: body surface conversion factor; 54 mg/kg in humans
Protocol: Based on scientific literature, it is understood that GGTi-2418 can be administered safely to humans in doses up to 2,060 mg/m^2 (54 mg/kg body weight) on days 1-5 of each 21-day cycle. By using a body surface conversion factor, 54 mg/kg in humans compares to 660 mg/kg in mice. In humans, GGTi can generally be administered in an effective amount with a dose escalation from about 200 mg/m^2 to 2060 mg/m^2 per day on days 1-5 of each 21-day cycle. In rats, the maximum tolerated dose for GGTi is 200 mg/kg for a single dosing or 150 mg/kg/day for 7 consecutive days. In addition to intraperitoneal administration, oral gavage, intravenous infusion, and subcutaneous administration are other acceptable modes of administration. While GGTi-298 and GGTi-2133 are the preferred GGTis in the method of the present invention, use of other GGTis are expected to show the same effects although the magnitude of the effects may not be as great.

[11] = days 1-5 of each 21-day cycle; cited from earlier work
[12] = 12 Gy PBI, 5 or 10 mg/kg body weight, vs vehicle
[13] = 12 Gy PBI, i.p. 1 or 2.5 mg/kg three times per week starting 24 h after PBI, 2 weeks, vs vehicle
[14] = 12 Gy PBI, i.p. 1 or 2.5 mg/kg, vs PBI plus vehicle

SMILES: COC(=O)[C@H](CC(C)C)NC(=O)c1ccc(NC[C@@H](N)CS)cc1-c1cccc2ccccc12 [GGTi-298]
- PBI-induced increase in crypt depth [1, 12]: attenuated
- PBI-induced increase in crypt width [1, 12]: attenuated
- PBI-induced reduction in villus height [1, 12]: attenuated

SMILES: CC(C)C[C@H](NC(=O)c1ccc(NCc2cnc[nH]2)cc1-c1cccc2ccccc12)C(=O)O [GGTi-2133]
- number of surviving crypts [2]: significantly (p=0.002) increased
- proliferation rate and metabolic activity (MTT) [3]: suppresses
- proliferation rate and metabolic activity (MTT) [4]: suppresses
- proliferation rate and metabolic activity (MTT) [5]: suppresses
- percentage of Akkermansia muciniphila in cecal content ([6]; irradiated mice): increased
- percentage of Clostridium species in cecal content ([6]; vs PBI plus vehicle): reduced
- percentage of Turicibacter species in cecal content ([6]; vs PBI plus vehicle): reduced
- OLFM4 (intestinal stem cell marker) staining ([1]; 2 weeks after 12 Gy γ-ray PBI, immunohistochemistry, 1 or 2.5 mg/kg): restored
- PBI-induced body weight loss ([1]; 12 Gy PBI, 2.5 mg/kg body weight i.p., vs vehicle): significantly less
- proliferating cell number in the crypts (PCNA and Ki-67) ([1]; 12 Gy PBI, 2.5 mg/kg body weight, vs PBI plus vehicle): significantly increased
- PBI-induced decrease in mucosal surface area (MSA) [1, 13]: attenuated
- PBI-induced increase in crypt depth [1, 13]: attenuated
- PBI-induced increase in enterocyte length [1, 13]: attenuated
- PBI-induced increase in enterocyte nuclear length [1, 13]: attenuated
- PBI-induced reduction in villus height [1, 13]: attenuated
- Alcian blue staining intensity of goblet cells [1, 14]: significantly enhanced
- intraepithelial macrophage (CD68) number per villus [1, 14]: decrease
- lymphocyte (CD3ε positive) number in the intestine [1, 14]: significant recovery
- neutrophil (MPO positive) number in the intestine [1, 14]: significant recovery
- number of mucus secreting goblet cells (Alcian blue) [1, 14]: elevated
- stromal macrophage (CD68) number per villus [1, 14]: decrease
- colony forming ability [7]: suppresses
- colony forming ability [8]: suppresses
- proliferation rate and metabolic activity (MTT) ([9]; 3 concentrations, once a day for 4 days, time-dependent and dose-dependent): suppresses
- radiation-induced decline in proliferation rate and metabolic activity ([9]; combined with 2 Gy radiation vs either treatment alone): enhances

SMILES: Cc1nc[nH]c1CN1CCN(C(=O)N[C@@H](CC(C)C)C(=O)O)[C@@H](Cc2ccccc2)C1=O [GGTi-2418]
- mouse equivalent of the safe human dose [10]: 660 mg/kg
- dose that can be administered safely to humans [11]: up to 2,060 mg/m^2
- dose that can be administered safely to humans, per body weight [11]: ≤ 54 mg/kg body weight
